The source made the active and inactive calls. The rule behind the calls is not given here.

Holding throughout (format): functional, cell-based
Assay [1] deals with THP-1. Briefly: Antiinflammatory activity in PMA-differentiated human THP-1 macrophages assessed as increase in IL-10 production at 1 to 10 uM incubated for 24 hrs by ELISA coupled qRT-PCR analysis. Particulars: dose 1-10 µM. For orientation: An ELISA detects its analyte on a solid surface through an enzyme-linked reagent.
For assay [2], the system named is THP-1. Description: Antiinflammatory activity in human THP-1 monocytes assessed as increase in IL-10 production at 10 uM incubated for 24 hrs in the presence of N-(adamantan-1-yl)-4-(pentylamino)-[1,1'-biphenyl]-3-carboxamide by ELISA coupled qRT-PCR analysis.
In assay [3] the test system is THP-1. Briefly: Antiinflammatory activity in PMA-differentiated human THP-1 macrophages assessed as decrease in IL-1beta production at 10 uM incubated for 24 hrs in the presence of JTE907 by ELISA coupled qRT-PCR analysis.
For assay [4], the system named is THP-1. Description: Antiinflammatory against LPS-activated human THP-1 monocytes assessed as decrease in TNF-alpha production at 10 uM incubated for 24 hrs in the presence of JTE907 by ELISA coupled qRT-PCR analysis.

Regarding `CCCCCNc1ccccc1C(=O)NC12CC3CC(CC(C3)C1)C2`, the result in assay [1] was Active.

In the case of `O=C(NC1CCCCC1)c1cn(CCN2CCOCC2)c2cc(Cl)ccc2c1=O`, the outcome in assay [2], in assay [3] and in assay [4] was inactive.

For the origin of these results see ChEMBL document CHEMBL5321210, “N-adamantyl-anthranil amide derivatives: New selective ligands for the cannabinoid receptor subtype 2 (CB2R)” (Eur J Med Chem, 2023).
